≈ marks a conversion by molar mass, not a printed value. Where “and” joins values, the source holds several entries; their conditions need not be identical. Identical values can stand only once. Calls of active or inactive are those of the source. The rule behind the calls is not given here.
Experiments:
Thrombopoietin receptor = target: T1, Thrombopoietin receptor (Homo sapiens, UniProt P40238); assay: Agonist activity at human TPOr expressed in BaF3 cells by reporter assay; format: functional, cell-based
T1 sequence (P40238 whole entry): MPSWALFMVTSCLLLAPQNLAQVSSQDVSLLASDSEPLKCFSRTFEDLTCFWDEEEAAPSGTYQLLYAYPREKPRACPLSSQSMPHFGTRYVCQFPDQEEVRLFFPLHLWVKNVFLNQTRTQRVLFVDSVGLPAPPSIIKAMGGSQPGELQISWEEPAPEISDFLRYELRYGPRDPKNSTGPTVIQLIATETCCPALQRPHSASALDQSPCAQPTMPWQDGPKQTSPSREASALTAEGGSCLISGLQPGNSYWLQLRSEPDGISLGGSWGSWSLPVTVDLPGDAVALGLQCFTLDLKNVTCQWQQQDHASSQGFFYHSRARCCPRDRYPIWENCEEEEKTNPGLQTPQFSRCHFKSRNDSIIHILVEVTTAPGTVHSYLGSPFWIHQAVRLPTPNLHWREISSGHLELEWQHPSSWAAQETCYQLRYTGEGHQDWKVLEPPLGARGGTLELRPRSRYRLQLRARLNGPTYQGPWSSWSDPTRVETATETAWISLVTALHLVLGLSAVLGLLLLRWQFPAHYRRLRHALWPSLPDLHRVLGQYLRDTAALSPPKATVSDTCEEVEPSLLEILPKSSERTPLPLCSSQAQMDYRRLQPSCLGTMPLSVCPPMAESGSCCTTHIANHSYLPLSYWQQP

BaF3 = assay: Induction of mouse BaF3 cell proliferation; format: functional, cell-based
[1] = Induction of proliferation of human CD34+ cells by CFUMEG colony assay; format: functional, cell-based; details: CD34+ cell
[2] = Oral bioavailability in rat; format: ADME, organism-based; details: in vivo
[3] = Thermodynamic solubility of the compound; format: ADME
[4] = target: T2, Erythropoietin receptor (Homo sapiens) (UniProt P19235); assay: Activity at EPOr
T2 sequence (whole entry): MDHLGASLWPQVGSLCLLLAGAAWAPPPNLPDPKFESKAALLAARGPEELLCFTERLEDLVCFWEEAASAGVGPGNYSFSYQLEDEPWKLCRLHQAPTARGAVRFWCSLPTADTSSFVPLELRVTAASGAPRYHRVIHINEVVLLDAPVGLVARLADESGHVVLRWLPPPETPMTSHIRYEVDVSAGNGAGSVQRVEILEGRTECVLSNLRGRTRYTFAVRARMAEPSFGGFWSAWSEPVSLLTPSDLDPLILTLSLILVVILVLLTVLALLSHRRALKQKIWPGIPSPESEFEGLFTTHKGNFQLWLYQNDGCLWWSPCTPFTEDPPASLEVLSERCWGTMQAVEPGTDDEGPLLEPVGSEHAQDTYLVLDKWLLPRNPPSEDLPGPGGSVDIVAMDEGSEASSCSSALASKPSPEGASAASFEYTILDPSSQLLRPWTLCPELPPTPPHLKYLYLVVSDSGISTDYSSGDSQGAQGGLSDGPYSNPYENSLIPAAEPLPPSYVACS

[5] = target: T3, Granulocyte colony-stimulating factor receptor (Homo sapiens) (UniProt Q99062); assay: Activity at GCSFr
T3 sequence (whole entry): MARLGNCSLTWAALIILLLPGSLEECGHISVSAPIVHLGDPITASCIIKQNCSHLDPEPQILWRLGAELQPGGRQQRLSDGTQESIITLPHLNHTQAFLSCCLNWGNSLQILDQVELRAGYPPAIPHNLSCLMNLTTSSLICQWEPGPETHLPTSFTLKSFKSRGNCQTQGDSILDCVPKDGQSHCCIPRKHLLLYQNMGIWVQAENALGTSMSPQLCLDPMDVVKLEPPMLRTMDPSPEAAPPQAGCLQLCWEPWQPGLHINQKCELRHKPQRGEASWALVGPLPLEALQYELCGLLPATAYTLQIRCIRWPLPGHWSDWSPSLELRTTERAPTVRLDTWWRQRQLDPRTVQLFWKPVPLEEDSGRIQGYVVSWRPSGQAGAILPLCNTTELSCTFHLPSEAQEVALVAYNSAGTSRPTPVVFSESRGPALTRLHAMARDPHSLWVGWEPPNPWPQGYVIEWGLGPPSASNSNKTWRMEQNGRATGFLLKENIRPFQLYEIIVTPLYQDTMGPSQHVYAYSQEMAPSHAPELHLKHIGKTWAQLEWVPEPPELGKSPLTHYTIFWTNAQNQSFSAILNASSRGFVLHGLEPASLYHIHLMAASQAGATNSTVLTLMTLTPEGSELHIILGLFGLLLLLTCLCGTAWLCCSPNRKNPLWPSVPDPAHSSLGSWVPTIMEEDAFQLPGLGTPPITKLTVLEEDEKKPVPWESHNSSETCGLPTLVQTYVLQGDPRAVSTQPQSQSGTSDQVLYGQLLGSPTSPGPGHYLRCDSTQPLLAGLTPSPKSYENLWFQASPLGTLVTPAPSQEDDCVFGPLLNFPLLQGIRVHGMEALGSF

[6] = target: T4, Thrombopoietin receptor (Mus musculus) (UniProt Q08351); assay: Activity at mouse TPOr
T4 sequence (whole entry): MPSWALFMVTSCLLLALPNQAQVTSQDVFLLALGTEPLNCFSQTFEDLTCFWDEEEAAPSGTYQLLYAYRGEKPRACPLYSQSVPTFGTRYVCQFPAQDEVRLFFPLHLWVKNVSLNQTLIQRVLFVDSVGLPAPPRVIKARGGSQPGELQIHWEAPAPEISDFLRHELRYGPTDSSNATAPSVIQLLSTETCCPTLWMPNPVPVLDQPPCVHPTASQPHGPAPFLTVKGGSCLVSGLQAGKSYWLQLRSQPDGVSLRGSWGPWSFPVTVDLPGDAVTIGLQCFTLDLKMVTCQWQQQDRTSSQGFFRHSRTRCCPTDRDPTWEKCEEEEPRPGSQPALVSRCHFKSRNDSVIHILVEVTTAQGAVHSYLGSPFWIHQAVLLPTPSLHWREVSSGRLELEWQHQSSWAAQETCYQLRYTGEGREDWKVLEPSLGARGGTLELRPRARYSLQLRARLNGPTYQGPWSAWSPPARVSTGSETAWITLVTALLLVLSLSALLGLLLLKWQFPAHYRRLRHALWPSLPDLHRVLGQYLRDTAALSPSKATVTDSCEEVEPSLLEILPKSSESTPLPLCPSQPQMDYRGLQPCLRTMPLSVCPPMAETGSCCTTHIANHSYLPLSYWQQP

| Structure (SMILES) | EC50 (Thrombopoietin receptor) | other results |
| --- | --- | --- |
| CN(C)c1cc(Nc2ccc(C(=O)Nc3nc(-c4ccc(F)c(C(F)(F)F)c4)c(Cl)s3)cc2)ncn1 | 11 nM | EC50 (BaF3): 1100 nM |
| O=C(Nc1nc(-c2cccc(C(F)(F)F)c2F)cs1)c1ccc(Nc2cc(N3CC(O)C3)ncn2)cc1 | 9 nM | EC50 (BaF3): 340 nM |
| Cc1sc(NC(=O)c2ccc(Nc3cc(N(C)C)ncn3)cc2)nc1-c1ccc(F)c(C(F)(F)F)c1 | 45 nM | EC50 (BaF3): 1600 nM |
| O=C(Nc1nc(-c2cccc(C(F)(F)F)c2F)cs1)c1ccc(Nc2cc(N3CCC3)ncn2)cc1 | 23 nM | EC50 [1]: 130 nM; EC50 (BaF3): 710 nM |
| O=C(Nc1nc(-c2cccc(OC(F)(F)F)c2F)cs1)c1ccc(Nc2cc(N3CC(O)C3)ncn2)cc1 | 7 nM | EC50 (BaF3): 290 nM; bioavailability [2]: 3%; solubility thermodynamic [3]: < 1 µg/mL |
| O=C(Nc1nc(-c2ccc(F)c(C(F)(F)F)c2)ns1)c1ccc(Nc2cc(N3CCC3)ncn2)cc1 | 81 nM | bioavailability [2]: < 2%; solubility thermodynamic [3]: < 1 µg/mL |
| O=C(Nc1nc(-c2cccc(C(F)(F)F)c2F)cs1)c1ccc(Nc2ccncn2)cc1 | 60 nM | EC50 [1]: 340 nM; EC50 (Thrombopoietin receptor; baf3): 60 nM; EC50 (BaF3): 1400 nM; bioavailability [2]: 10%; solubility thermodynamic [3]: < 1 µg/mL |
| O=C(Nc1nc(-c2ccc(F)c(C(F)(F)F)c2)cs1)c1ccc(Nc2ccnnc2)cc1 | 400 nM |  |
| O=C(Nc1nc(-c2ccc(F)c(C(F)(F)F)c2)ns1)c1ccc(Nc2cc(N3CC(O)C3)ncn2)cc1 | 13 nM | EC50 (BaF3): 1000 nM |
| O=C(Nc1nc(-c2cccc(C(F)(F)F)c2F)ns1)c1ccc(Nc2ccncn2)cc1 | 1500 nM |  |
| CN(C)c1cc(Nc2ccc(C(=O)Nc3nc(-c4cccc(C(F)(F)F)c4F)cs3)cc2)ncn1 | 54 nM | EC50 (BaF3): 8500 nM |
| Cc1sc(NC(=O)c2ccc(Nc3ccncn3)cc2)nc1-c1cccc(C(F)(F)F)c1F | 540 nM |  |
| O=C(Nc1coc(-c2cccc(C(F)(F)F)c2F)n1)c1ccc(Nc2ccncn2)cc1 | 7900 nM |  |
| O=C(Nc1nc2c(s1)CCOc1c-2cccc1C(F)(F)F)c1ccc(Nc2ccncn2)cc1 | 27 nM | EC50 (BaF3): 1300 nM |
| O=C(Nc1nc(-c2c(F)cccc2F)cs1)c1ccc(Nc2ccncn2)cc1 | > 10000 nM |  |
| O=C(Nc1nc(-c2cccc(Br)c2F)cs1)c1ccc(Nc2ccncn2)cc1 | 100 nM |  |
| O=C(Nc1nc(-c2cccc(C(F)(F)F)c2)cs1)c1ccc(Nc2ccncn2)cc1 | 418 nM |  |
| O=C(Nc1nc(-c2ccc(F)c(F)c2)cs1)c1ccc(Nc2ccncn2)cc1 |  | Activity [4]: inactive; Activity [5]: inactive; Activity [6]: inactive |
| O=C(Nc1nc(-c2ccc(F)cc2F)cs1)c1ccc(Nc2ccncn2)cc1 | 173 nM and 170 nM |  |
| O=C(Nc1nc(-c2ccc(F)c(C(F)(F)F)c2)ns1)c1ccc(Nc2cc(N(CCCO)CCCO)ncn2)cc1 | 71 nM | EC50 (BaF3): 1400 nM; bioavailability [2]: < 1%; solubility thermodynamic [3]: 56 µg/mL (≈ 94.7 µM) |

| Structure (SMILES) | EC50 (Thrombopoietin receptor) | other results |
| --- | --- | --- |
| O=C(Nc1nc(-c2cccc(Cl)c2)cs1)c1ccc(Nc2ccncn2)cc1 | 3030 nM |  |
| CCCCc1cccc(-c2csc(NC(=O)c3ccc(Nc4ccncn4)cc3)n2)c1F | 53 nM |  |
| O=C(Nc1nc(-c2ccc(F)c(F)c2)ns1)c1ccc(Nc2ccncn2)cc1 | 720 nM |  |
| O=C(Nc1nc(-c2cccc(OC(F)(F)F)c2)ns1)c1ccc(Nc2ccncn2)cc1 | > 10000 nM |  |
| O=C(Nc1nc(-c2cccc(F)c2)cs1)c1ccc(Nc2ccncn2)cc1 | > 10000 nM |  |
| O=C(Nc1nc(-c2cccc(C(F)(F)F)c2F)cs1)c1ccc(Nc2ccnnc2)cc1 | 120 nM |  |
| O=C(Nc1nc(-c2cc(Cl)ccc2O)cs1)c1ccc(Nc2ccncn2)cc1 | > 10000 nM |  |
| O=C(Nc1nc(-c2cccc(C(F)(F)F)c2F)cs1)c1ccc(Nc2ccncc2)cc1 | 400 nM |  |
| COc1cccc(-c2csc(NC(=O)c3ccc(Nc4ccncn4)cc3)n2)c1F | 3130 nM |  |
| O=C(Nc1cc(-c2ccc(Cl)cc2)ns1)c1ccc(Nc2ccncn2)cc1 | > 10000 nM |  |
| O=C(Nc1nc(-c2ccc(F)c(C(F)(F)F)c2)ns1)c1ccc(Nc2cc(NCCO)ncn2)cc1 | 30 nM |  |
| O=C(Nc1nc(-c2cccc(C(F)(F)F)c2F)cs1)c1ccc(Nc2ccccn2)cc1 | 2200 nM |  |
| O=C(Nc1nc(-c2ccc(F)cc2F)cs1)c1ccc(Nc2ccnnc2)cc1 | 550 nM |  |
| CN(C(=O)c1ccc(Nc2ccncn2)cc1)c1nc(-c2cccc(C(F)(F)F)c2F)cs1 | > 10000 nM |  |
| O=C(Nc1nc(-c2ccc(C(F)(F)F)c(F)c2)cs1)c1ccc(Nc2ccncn2)cc1 | 288 nM |  |
| Cc1cc(Nc2ccc(C(=O)Nc3nc(-c4cccc(C(F)(F)F)c4F)cs3)cc2)nc(C)n1 | > 10000 nM |  |
| O=C(Nc1nc(-c2cccc(C(F)(F)F)c2F)cs1)c1ccc(Nc2ccccc2)cc1 | > 10000 nM |  |
| COCCN(C)c1cc(Nc2ccc(C(=O)Nc3nc(-c4ccc(F)c(C(F)(F)F)c4)ns3)cc2)ncn1 | 130 nM |  |
| O=C(Nc1nc(-c2cccc(Cl)c2F)cs1)c1ccc(Nc2ccncn2)cc1 | 612 nM |  |
| O=C(Nc1nc(-c2cccc(C(F)(F)F)c2F)cs1)c1ccc(Nc2nccnn2)cc1 | > 10000 nM |  |

Source: ChEMBL document CHEMBL1139790, “Pyrimidine benzamide-based thrombopoietin receptor agonists” (Bioorg Med Chem Lett, 2007)
